Experimental findings from patent publication US20070074967A1, “Photodegradable protective group” (The University of Tokyo, priority 2005, published 2007) are described below.

The nature of the series: Photodeprotection by irradiation with light of 470 nm (absorption spectra, fluorescence). It counts as physicochemical. The settings on record: for Change of absorption peaks around 450 nm with the light irradiation / Change of absorption peaks around 490 nm with the light irradiation (release of 6-hydroxy-9-o-toluylxanthen-3-one by deprotection): 3 μM in 0.1 M sodium phosphate buffer (pH 7.4), 10% N,N-dimethylformamide, light of 470 nm, argon laser, FIG. 1. The procedure:
3,5-DNB-2-Me TG obtained in Example 1 and o-NB-2-Me TG obtained in Example 2 were each dissolved in 0.1 M sodium phosphate buffer (pH 7.4) at a concentration of 3 μM. As a cosolvent, 10% N,N-dimethylformamide was added.
Light of 470 nm was irradiated by using an argon laser. One cycle consisted of 128 pulses×10 times.
It can be understood that the peaks around 450 nm observed for 3,5-DNB-2-Me TG and o-NB-2-Me TG were lowered, and the peaks around 490 nm were highered with the light irradiation. This is because 6-hydroxy-9-o-toluylxanthen-3-one was released from the compounds by deprotection.

As for `Cc1ccccc1-c1c2ccc(=O)cc-2oc2cc(OCc3cc([N+](=O)[O-])cc([N+](=O)[O-])c3)ccc12` [3,5-DNB-2-Me TG, 6-(3,5-dinitrobenzyloxy)-9-o-toluylxanthen-3-one], the “Change of absorption peaks around 450 nm with the light irradiation” value is on record as “lowered” and the “Change of absorption peaks around 490 nm with the light irradiation (release of 6-hydroxy-9-o-toluylxanthen-3-one by deprotection)” value is reported as “highered”. The “Fluorescence provided by released 6-hydroxy-9-o-toluylxanthen-3-one on irradiation” value (irradiated with light of 470 nm, FIG. 2) was “increase of fluorescence”.
Turning to `Cc1ccccc1-c1c2ccc(=O)cc-2oc2cc(OCc3ccccc3[N+](=O)[O-])ccc12` [o-NB-2-Me TG, 6-(2-nitrobenzyloxy)-9-o-toluylxanthen-3-one], the “Change of absorption peaks around 450 nm with the light irradiation” value is recorded as “lowered” and the “Change of absorption peaks around 490 nm with the light irradiation (release of 6-hydroxy-9-o-toluylxanthen-3-one by deprotection)” value is listed as “highered”.
